Here are results for 1 molecule from patent publication US12544375B2, “Small molecule therapeutic for parkinson's disease paired with a biomarker of therapeutic activity” (The Board of Trustees of the Leland Stanford Junior …, priority 2019, dated 2026).

This assay concerns LRRK2^G2019S, PINK1 null and SNCA^A53T flies. The assay can be described thus: Dopaminergic neuron number in fly PD models (anti-TH). It counts as in vivo. To be noted: 2.5 μM in food, all three PD models. The method, then:
FIG. 4A-FIG. 4I. Miro1 Reducer Rescues PD-Relevant Phenotypes in Flies. For all panels, when Miro1 Reducer was not added, the same volume of the solvent, DMSO, was supplied in fly food. Drug administration (2.5 μM) was started from day 2. (FIG. 4A-FIG. 4C) Survival curves of LRRK2^G2019S (FIG. 4A), PINK1^B9 (imprecise excision, null) and PINK1^RV (the precise excision control for PINK1^B9) (FIG. 4B), and SNCA^A53T flies (FIG. 4C). n=58-150. (FIG. 4D) Dopaminergic (DA) neurons in the PPM1/2 clusters of 22-day old flies were immunostained with anti-TH. (FIG. 4D-FIG. 4F) Quantification of the DA neuron number in the PPL1 or PPM1/2 cluster (total number divided by 2 for each brain). (FIG. 4D) LRRK2^G2019S. n=6-8 brains. (FIG. 4E) PINK1^B9 (“−”) and PINK1^RV (“+”). n=9-16. (FIG. 4F) SNCA^A53T. n=9-11. […]
Immunocytochemistry and Confocal Microscopy. PI (P4170, Sigma) at 2.5 μg/ml or 4′, 6-Diamidino-2-phenylindole (Dapi-D9542, Sigma) at 0.5 μg/ml was applied in culture media at room temperature in the dark for 10 min, MitoSox (M36008, Invitrogen) at 2 μM was applied in culture media at 37° C. for 10 min, or TMRM (T668, Molecular Probes) at 25 nM was applied in culture media at 37° C. for 30 min, and cells were washed with HBSS and imaged immediately in a 35-mm petridish containing the Hibernate E low-fluorescence medium with a 63×/N.A.0.9 water-immersion objective. […]

Regarding `O=C(Nc1ccc(Nc2cc(-n3ccnc3)ncn2)cc1)Nc1cccc(F)c1` [Miro1 Reducer], the “age-dependent dopaminergic neuronal loss” value is on record as “significantly rescued”.
